Results taken from patent US5302586A, “Phosphonomethyl-imidazo[1,2-a]pyrimidine-2-carboxylic acid compounds for treatment of neurotoxic injury” (G. D. Searle & Co., priority 1992, dated 1994).

Assays:
NMDA = conditions: CPP binding to rat brain hippocampal tissue, Murphy et al 1987; cited from earlier work
[1] = biological target: NMDA receptor site (NMDA-specific L-[^3 H]glutamate recognition site); assay: NMDA-Selective Glutamate Binding Assay (L-[^3 H]glutamate, synaptic plasma membranes); set-up: species or system rat
Procedure: Synaptic plasma membranes (SPM) were prepared as previously described [Monohan, J. B. and Michel, J., "Identification and Characterization of an N-methyl-D-aspartate-specific L[^3 H]glutamate Recognition Site in Synaptic Plasma Membranes, J. Neurochem., 48, 1699-1708 (1987)]. The SPM were stored at a concentration of 10-15 mg/ml in 0.32M sucrose, 0.5 mM EDTA, 1 mM MgSO4, 5 mM Tris/SO4, pH 7.4, under liquid nitrogen. The identity and purity of the subcellular fractions were confirmed by both electron microscopy and marker enzymes. Protein concentrations were determined by using a modification of the method of Lowry [Ohnishi, S. T. and Barr, J. K., "A Simplified Method of Quantitating Proteins Using the Biuret and Phenol Reagents", Anal. Biochem., 86, 193-197 (1978)]. The SPM were treated identically for the [^3 H]AMPA (QUIS), [^3 H]kainate and sodium-dependent L-[^3 H]-glumatate binding assays. […] Beckman MP scintillation cocktail containing 7 mL/1 acetic acid was then added and the samples counted on a Beckman LS 5800 or 3801 liquid scintillation counter with automatic corrections for quenching and counting efficiency. […] Radioligand binding to the synaptic plasma membranes was analyzed using Scatchard and Hill transformations and the Ki values of the compounds determined using logit-log transformations. […]

[2] = biological target: [^3 H]MK-801 binding, rat SPM (NMDA receptor); assay: [^3 H]MK-801 Binding assay (Triton X-100 treated rat synaptic plasma membranes); conditions: 5.0 nM [^3 H]MK-801, L-glutamate 10.0 nM, 25° C., 30 min, pH 7.4
Procedure: Modulation of [^3 H]MK-801 binding was performed using Triton X-100 (0.04% v/v) treated rat SPM that had been extensively washed. Assay incubations were at 25° C. for 30 min. and contained 5.0 nM [^3 H]MK-801, L-glutamate (10.0 nM), and various concentrations of the tested compound of the invention in 50 mM Tris/acetate, pH 7.4. The assay was stopped by rapid filtration, using Brandel MB-48 Harvester, through Whatman GF/B filters treated with 0.05% polyethylenimine and the samples washed four times with 2.0 mL cold buffer. The radioactivity associated with the filter was determined by liquid scintillation spectrometry. Nonspecific binding was defined using 60 μM MK-801. IC50 were determined using a logit-log transformation of the binding data.

Question: For `O=C(O)C1CN(CCCP(=O)(O)O)CCN1` (stereo not shown) [CPP, 3-(2-carboxypiperazin-4-yl)propyl-1-phosphonic acid], which “NMDA antagonist potency and selectivity” value (NMDA) is on record?
Answer: potent and selective NMDA antagonist

Question: With `O=C(O)c1cn2c(CP(=O)(O)O)ccnc2n1` [Example 1, 5-Phosphonomethyl-imidazo[1,2-a]pyrimidine-2-carboxylic acid] as the compound, how does the Ki ([1]; [^3 H]GLU, Triton X-100 treated SPM, 50 mM Tris/acetate pH 7.4, 0°-4° C., 10 min) read?
Answer: 8.8 µM

Question: And the Ki [2]?
Answer: 4.6 µM

Question: Which “[^3 H]GLU % inhibition” value ([1]; @ 10 μM) does the source give for `O=C(O)c1cn2ccc(CP(=O)(O)O)nc2n1` [Example 2, 7-phosphonomethyl-imidazo[1,2-a]pyrimidine-2-carboxylic acid] here?
Answer: 14%
